Entries after “also recorded” stand apart in the source; their conditions may differ.
Columns and labels:
primary neural cells = assay: Multifactorial in vitro model of neurological injury (six injury factors), CellTiterBlue viability; type: cell-based, Wistar rat; settings: 1-hour injury factor (glucose deprivation, acidosis pH 6.35 + 200 mM sodium lactate, 10 mM sodium azide, 400 µM glutamic acid, 800 µM NMDA or 800 µM kainic acid), then 20 hour incubation with 100 µM peptide (RGD10: 1 µg/ml)
Method: (§1) Primary neural cortical cultures were obtained from Wistar rat E18.5 embryos. To this end, pregnant rat females were anesthetized and euthanized in a CO2 chamber. In some cases, euthanasia was performed by isoflurane. The cortex tissue was excised from the isolated embryos and washed with HBSS buffer, supplemented with a mixture of penicillin and streptomycin, and HEPES. Afterwards, the cortex tissue was trypsinized for 10 minutes at 37 °C and homogenized mechanically in order to disintegrate the tissue to the form of a cell suspension. The cells were the centrifuged at 300 rcf for 4 minutes, resuspended once more in HBSS and quantified in a Bürker chamber in order to obtain a cell suspension of proper density. […]
(§2) A subject of the invention constitutes a diagnostic methodology for measuring the neuroprotective activity of peptides in a model of several factors co-occurring during any neurological injury. […] These injury conditions were optimized so that the strength of each injury factor causes a 30-40% decrease in response in a CellTiterBlue-based evaluation (a CTB fluorophore in a modified biochemical assay of the MTT type) of cellular viability, relying on quantitative analysis of mitochondrial metabolic functions. […] The fluorescence intensity of the CTB agent is measured spectrofluorimetically (560ex/590em) and is proportional to the number of living cells. […]

[1] = test system: primary neural cortical cultures; assay: Viability assay (CellTiterBlue) of primary neural cultures exposed to polyRGD peptides; type: cell-based, Wistar rat; settings: reference peptide at 50 µM, 20 hour exposure
Method: as §1, §2

| Compound | injury-reducing and/or neuroprotective activity (neural cell viability) (primary neural cells) | injury-reducing and/or neuroprotective activity (neural cell viability) (primary neural cells; listed as RGD 1) | cytotoxic effects (viability of neural culture) [1] |
| --- | --- | --- | --- |
| N=C(N)NCCC[C@H](N)C(=O)NCC(=O)N[C@@H](CC(=O)O)C(N)=O [RGD1, H2N-RGD-amide] | significant increase in neural cell viability with regard to all injury factors; also recorded: significant injury-reducing and/or neuroprotective efficacy with respect to all six injury factors | broadest spectrum of activity |  |
| Tat(49-57)NH2 [TAT peptide] |  |  | None of the analyzed peptides displayed significant cytotoxic effects in the assessed concentration ranges, as well as a reference factor |

Reference: patent publication EP3549947B1, “POLYRGD PEPTIDES OBTAINED BY CHEMICAL AND BIOTECHNOLOGY METHODS WITH INJURY REDUCING AND/OR NEUROPROTECTIVE EFFECTS AND A KIT FOR THEIR ACTIVITY EVALUATION” (Uniwersytet Gdanski, priority 2018, dated 2019)
